Measurements published in patent US11534446B2, “Pharmaceutical composition comprising 3-beta-hydroxy-5-alpha-pregnan-20-one with improved storage and solubility properties” (ASARINA PHARMA AB, priority 2010, dated 2022).

Experiment: UC1010 concentration in 0.2 μm filtrate of suspensions in sesame oil with cholesterol (Example 77)
Assay type: physicochemical
Conditions: sesame oil suspension
Procedure: Suspensions of 3-beta-hydroxy-5-alpha-pregnan-20-one were prepared for investigation of solubility as follows: cholesterol was first dissolved at room temperature in sesame oil at 10 and 20 mg/ml, respectively. Suspensions of 3-beta-hydroxy-5-alpha-pregnan-20-one in sesame oil with different amounts of cholesterol were prepared on a magnetic stirrer at about 500 rpm using a conventional Teflon coated stir bar, at room temperature for several days, with occasional cycling to 2-8° C. At this time, the particles have become substantially smaller. Thereafter, samples of the respective suspensions were filtered through a 0.2 μm filter and analyzed with regard to concentration of 3-beta-hydroxy-5-alpha-pregnan-20-one. The results are presented in Table 3 and FIG. 2 where it can be seen that increasing the amounts of cholesterol increases the soluble fraction of 3-beta-hydroxy-5-alpha-pregnan-20-one. […] FIGS. 3a and 3b show microscopy pictures taken at 5× enlargement of suspensions with a 3-beta-hydroxy-5-alpha-pregnan-20-one concentration of 10 mg/g and a cholesterol:3-beta-hydroxy-5-alpha-pregnan-20-one ratio of 1:1 immediately upon mixing (3a) and after several days of stirring (3b).

## CC(=O)[C@H]1CC[C@H]2[C@@H]3CC[C@H]4C[C@@H](O)CC[C@]4(C)[C@H]3CC[C@]12C [3-beta-hydroxy-5-alpha-pregnan-20-one]
Initial concentration 10 mg/g, weight ratio cholesterol to UC1010 0:1, 0.2 μm filter
  3-beta-hydroxy-5-alpha-pregnan-20-one concentration in filtrate: 1 mg/mL
Initial concentration 10 mg/g, weight ratio cholesterol to UC1010 1:1, 0.2 μm filter
  3-beta-hydroxy-5-alpha-pregnan-20-one concentration in filtrate: 1.8 mg/mL
Initial concentration 10 mg/g, weight ratio cholesterol to UC1010 2:1, 0.2 μm filter
  3-beta-hydroxy-5-alpha-pregnan-20-one concentration in filtrate: 2.2 mg/mL
Initial concentration 40 mg/g, weight ratio cholesterol to UC1010 1:2, 0.2 μm filter
  3-beta-hydroxy-5-alpha-pregnan-20-one concentration in filtrate: 1.9 mg/mL
Initial concentration 40 mg/g, weight ratio cholesterol to UC1010 1:4, 0.2 μm filter
  3-beta-hydroxy-5-alpha-pregnan-20-one concentration in filtrate: 1.4 mg/mL
